Results from PMC7408493, “Implication of Opioid Receptors in the Antihypertensive Effect of a Novel Chicken Foot-Derived Peptide” (Biomolecules, 2020).
Bridge positions count the residues as written; N and C are the ends. Ends that are not written are not given here. Peptide text beside a SMILES is read from it. I, II: the chains in the order shown. * marks the point of attachment. X1 = NC(=O)CC[C@H](NC(=O)[C@@H](N)CS*)C(=O)N[C@@H](CCC(=O)O)C(=O)O

Columns and labels:
Caco-2 cell monolayers = assay: Transepithelial transport through Caco-2 monolayer; assay type: in vitro ADME; details: 21 days, TEER > 200 Ω/cm^2, gastric digest G60 added to apical chamber, AP to BL, 1 h, 37 °C, HBSS, content in basolateral chamber in comparison to apical chamber, UHPLC-HRMS, triplicates
Method: Caco-2 cells were obtained from Sigma-Aldrich and were grown Dulbecco’s modified minimum essential medium (DMEM), supplemented with 20% fetal bovine serum (FBS), […] L-glutamine, 100 U/mL penicillin and 100 μg/mL streptomycin at 37 °C in and 5% CO2. Cells were seeded onto Transwell inserts permeable membrane support (0.4 µm pore, 24 mm diameter, 4.7 cm^2 grown surface from Merck Co., Bedford, MA, USA) placed in six-well plates. The seeding density was 12,000 cell/cm^2. The medium was replaced every 2–3 days and cells were growing for 21 days. On the 21st day of the procedure, the integrity of the Caco-2 monolayer was assessed by the measurement of transepithelial electrical resistance (TEER) using a Millicell ERS-2 voltammeter (EMD Millipore, Darmstadt, Germany) selecting the ones with TEER values higher than 200 Ω/cm^2.
For the transport study, Caco-2 cells, maintained in DMEM, were gently rinsed with Hank’s balanced salt solution (HBSS) and equilibrated for 20 min at 37 °C prior to the transport study. Then, it was evaluated the transepithelial transport of the peptide […] (1 mM) dissolved in HBSS and the digests obtained in the in vitro simulated digestion (G60 and D60). […] or the peptide digests G60 and D60 were added to the apical (AP) chamber and were incubated for 1 h at 37 °C. After this time, triplicates of the AP chamber content and the basolateral (BL) chamber content were taken and stored at −80 °C until ultra-high performance liquid chromatography-high resolution mass spectrometry (UHPLC-HRMS) analyses.
(§1) Samples obtained from in vitro peptide simulated digestion and Caco-2 monolayers were diluted 10 times with water (0.1% FA) and centrifuged (15,000 rpm, 15 min, 4 °C). Supernatants were directly analyzed by UHPLC-HRMS to avoid the loss of polar peptide fragments. Extensive clean-up or pre-concentration procedures were not necessary due to the high concentration of peptide and low matrix complexity than plasma samples.
(§2) The obtained purified solutions from plasma and peptide digests G60 and D60 and from AP and BL chambers in Caco-2 experiment were analyzed using a UHPLC 1290 Infinity II Series coupled to a QqQ 6490 Series (Agilent Technologies, Santa Clara, CA, USA) for tandem mass experiments or a qTOF 6550 Series (Agilent Technologies) for high-resolution mass spectrometry experiments. Chromatographic separation of peptide or their fragments were performed using a Kinetex 2.6 µm EVO C18 column (150 × 2.1 mm, […]) from (Phenomenex, Torrance, USA) as stationary phase and water containing 0.1% formic acid (solvent A) and acetonitrile (solvent B) as mobile phase. The separation was performed in gradient elution as follows: isocratic; 0–0.5 min, 2 % B; 0.5–1 min, 2–6% B; 1–5 min, 6–15% B; 5–6 min, 15–35% B; 6–10 min, 35–98% B; 10–12 min, 98% B isocratic; 12–12.10, 98–2% B. For all runs, 10 μL of the sample (4 °C) was injected, and the flow rate was 0.350 mL/min and the column temperature was 25 °C.
(§3) For in vitro simulated digestion experiments and Caco-2 monolayer samples, qTOF instrument was used to investigate the presence of unknown peptide fragments and previously in silico predicted peptide fragments by means of its accurate mass. Peptide and its fragments were semi-quantified using the chromatographic peak area observed in the extracted ion chromatograms using a 20 ppm mass window.

porcine pepsin = target: T1, porcine pepsin (Sus scrofa, UniProt P00791); assay: In vitro simulated gastric digestion (G60); assay type: in vitro ADME; details: simulated gastric fluid 35 mM NaCl pH 2, porcine pepsin enzyme/substrate 1:20 w/w, 37 °C, 60 min; UHPLC-HRMS extracted ion chromatogram, 20 ppm window, semi-quantified; triplicate aliquots
T1 construct: purchased Sigma-Aldrich (Madrid, Spain)
Method: For the in vitro simulated peptide GI digestion, a two-stage hydrolysis process was carried out according to Martos et al.. […] was dissolved in simulated gastric fluid (35 mM NaCl at pH 2 for 15 min) and posteriorly subjected to digestion by porcine pepsin (E.C. 3.4.23.1, 3440 units/mg) at an enzyme/substrate ratio of 1: 20 w/w at 37 °C for 60 min. Gastric digestion with pepsin was stopped by adding 1 M NaHCO3 and pH was adjusted to 7.0 with NaOH 1 M (final protein concentration of 5 mg/mL). Aliquots of this gastric digest were collected (G60) and stored at −20 °C until analysis. Duodenal digestions were performed by using, as the starting material, the obtained gastric digests, with the addition of 1 M CaCl2, 0.25 M bis-Tris pH 6.5, 0.25 M bis-Tris pH 6.5, and a 0.125 M bile salts mixture containing equimolar quantities of sodium taurocholate and glycodeoxycholic acid. Posteriorly, the duodenal enzymes trypsin (EC 232-650-8, 10100 BAEE units/mg protein), α-chymotrypsin (EC 232-671-2; 55 units/mg protein), porcine pancreatic lipase (EC 232-619-9) and colipase (EC 259-490-1), prepared in 35 mM NaCl adjusted to pH 7, were added to the solution. Duodenal digestion was carried out at pH 7, 37 °C during 60 (D60). Then, enzymes were inactivated by heating at 95 °C for 10 min in a water bath, followed by cooling to room temperature. Triplicates of aliquots at each time point were collected and stored at −20 °C until analysis.
as §1, §2, §3

[1] = peptides derived from Manchego cheese; ref Ruiz et al.; cited from earlier work
Method: Simulated in vitro gastrointestinal digestion model was used to investigate the releasing of the amino acid sequences previously predicted in the in silico approach. The peptide was sequentially digested under physiological conditions and the identification of amino acid sequences in samples obtained from both gastric and intestinal digestion were performed by UHPLC-HRMS (Table 2). When the results obtained by the in silico approach and in vitro approach were compared, it was observed that only two of the fourteen predicted peptide fragments from the in silico approach were identified in the i ...

opioid receptors = details: non-selective opioid receptor antagonist Naloxone; cited from earlier work
Text: However, some bioactive peptides might mediate their physiological effects through its binding to receptors present in the intestinal wall, implying that their absorption is not required. […] These opioid-like peptides are atypical opioid ligands that are released from the hydrolysis of food and present N-terminal sequences that are different fro ...

Caco-2 monolayer = details: cited from earlier work
Method: To verify the lack of absorption of the peptide or their resultant fragments in the GI tract an additional study using Caco-2 cells was carried out. The native peptide […] and the samples collected after the simulated gastric and duodenal digestions (G60 and D60, respectively) were incubated in Caco-2 monolayer for 1 h. The peptide and its resultant fragments were identified in the AP chamber from G60 samples, however, only 0.10–0.25% were transported to the BL chamber (Table 3). Therefore, the presence of native […] in the AP chamber after 1 h of incubation and the absence of the ...

[2] = system: spontaneously hypertensive rats; assay: Systolic blood pressure in SHR with or without Naloxone (tail-cuff); assay type: in vivo, rat; details: 50 mg/kg bw oral, Naloxone 3 mg/kg bw or saline, 6 h post-administration, n = 6
Method: Male, 17–20-week-old, SHR, weighing 286 ± 4 g were used in this study. All these animals were obtained from Charles River Laboratories Spain. The SHR were housed at a temperature of 23 °C with 12 h light/dark cycles and had free access to tap water and a standard diet (A04 Panlab). Before the experiments, rats were submitted to a training period of 10 days to guarantee the reliability of the measurements. To evaluate if […] presented an opioid-mediated effect, SHR received via subcutaneous 100 µL of Naloxone (3 mg/kg bw), and afterward a single oral dose (1 mL) of […] (10 mg/kg bw). Additionally, water, Captopril (50 mg/kg bw), known antihypertensive drug, and chicken foot hydrolysate Hpp11 (55 mg/kg bw), were administered as controls. Captopril and Hpp11 can inhibit ACE in vivo. […] Systolic blood pressure (SBP) was recorded in the rats by the tail-cuff method before and 2, 4, and 6 h post-administration. […]
Results from transepithelial transport studies are presented as means ± standard error means (SEM). […] The results for the experiments investigating the participation of opioid receptors in the […], Captopril and Hpp11 antihypertensive effect were expressed as the mean ± SEM of six animals per group (heterogeneity was tested by Levene’s test) and were analyzed by one-way ANOVA (Tukey’s test) using IBM SPSS Statistics 20.0 software. […]

T1 sequence (P00791 60-385): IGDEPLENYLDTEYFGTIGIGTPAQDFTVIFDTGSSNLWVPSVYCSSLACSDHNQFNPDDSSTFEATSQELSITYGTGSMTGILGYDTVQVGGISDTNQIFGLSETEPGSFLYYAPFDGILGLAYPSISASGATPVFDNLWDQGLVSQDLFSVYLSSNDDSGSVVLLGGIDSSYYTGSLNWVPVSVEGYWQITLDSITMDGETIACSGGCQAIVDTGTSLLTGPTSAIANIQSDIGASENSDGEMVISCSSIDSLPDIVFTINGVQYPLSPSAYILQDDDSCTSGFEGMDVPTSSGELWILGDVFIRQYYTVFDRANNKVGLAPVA

Compound | G60 % Transport (Caco-2 cell monolayers) [%] | Area G60 (chromatographic peak area) (porcine pepsin) | further results
AVFQHN [AVFQHN] | 0.10 | 685,482 | –
CC(C)[C@H](NC(=O)[C@H](C)N)C(=O)N[C@@H](Cc1ccccc1)C(=O)O [AVF] (H-Ala-Val-Phe-OH) | 0.15 | 200,712 | –
CC(C)[C@H](NC(=O)[C@H](C)N)C(=O)N[C@@H](Cc1ccccc1)C(=O)N[C@@H](CCC(N)=O)C(=O)N[C@@H](Cc1c[nH]cn1)C(=O)N[C@@H](CC(N)=O)C(=O)N[C@@H](CSSC[C@H](N)C(=O)N[C@@H](CCC(N)=O)C(=O)N[C@@H](CCC(=O)O)C(=O)O)C(=O)N[C@@H](CCC(N)=O)C(=O)N[C@@H](CCC(=O)O)C(=O)O (H-AVFQHNC(X1)QE-OH) | 0.15 | 93,694 | –
KKYNVPQL [peptide derived from Manchego cheese] | – | – | Resistance to GI digestion [1]: resistance to GI digestion
CC(C)[C@H](NC(=O)[C@H](C)N)C(=O)N[C@@H](Cc1ccccc1)C(=O)N[C@@H](CCC(N)=O)C(=O)N[C@@H](Cc1c[nH]cn1)C(=O)N[C@@H](CC(N)=O)C(=O)N[C@@H](CSSC[C@H](NC(=O)[C@H](CC(N)=O)NC(=O)[C@H](Cc1c[nH]cn1)NC(=O)[C@@H](N)CCC(N)=O)C(=O)N[C@@H](CCC(N)=O)C(=O)N[C@@H](CCC(=O)O)C(=O)O)C(=O)N[C@@H](CCC(N)=O)C(=O)N[C@@H](CCC(=O)O)C(=O)O (I: H-AVFQHNCQE-OH / II: H-QHNCQE-OH; disulfide I:7-II:4) | 0.15 | 136,056 | –
CC(C)[C@H](NC(=O)[C@H](C)N)C(=O)N[C@@H](Cc1ccccc1)C(=O)N[C@@H](CCC(N)=O)C(=O)N[C@@H](Cc1c[nH]cn1)C(=O)N[C@@H](CC(N)=O)C(=O)N[C@@H](CSSC[C@H](NC(=O)[C@H](CC(N)=O)NC(=O)[C@H](Cc1c[nH]cn1)NC(=O)[C@H](CCC(N)=O)NC(=O)[C@H](Cc1ccccc1)NC(=O)[C@@H](NC(=O)[C@H](C)N)C(C)C)C(=O)N[C@@H](CCC(N)=O)C(=O)N[C@@H](CCC(=O)O)C(=O)O)C(=O)N[C@@H](CCC(N)=O)C(=O)N[C@@H](CCC(=O)O)C(=O)O (I: H-AVFQHNCQE-OH / II: H-AVFQHNCQE-OH; disulfide I:7-II:7) | 0.11 | 605,812 | –
YGLF [α-lactorphin, milk-derived opioid-like antihypertensive peptide] | – | – | BP-lowering effect after administration of Naloxone (opioid receptors): abolished
VRYL [peptide derived from Manchego cheese] | – | – | Resistance to GI digestion [1]: resistance to GI digestion
AVFQHNC [AVFQHNC] | 0.60 | 220,051 | –
AVFQH [AVFQH] | 0.17 | 155,533 | –
RADHP [antihypertensive peptide reported by Miguel et al] | – | – | Transport through Caco-2 monolayer (Caco-2 monolayer): lack of transported through Caco-2 monolayer
QHNCQE [QHNCQE] | – | 288,536 | –
C[C@H](CS)C(=O)N1CCC[C@H]1C(=O)O [Captopril] | – | – | BP reduction in naloxone-treated and saline-treated rats [2]: able to reduce BP in rats treated with Naloxone and in rats treated with saline
